pIC50: −log10 of the molar value. Some results are limits rather than exact numbers.

Here are results for 20 compounds from patent publication US20250361230A1, “LATS Inhibitors and Uses Thereof” (The USA, as Represented by the Secretary, Dept. of Heath …, priority 2022, published 2025).

For one test, the target named is AKT (Homo sapiens, UniProt P31749). The test can be described thus: RBC HotSpot kinase assay (33P-ATP, P81 filter-binding), AKT. It counts as biochemical. Conditions: Table 28, biochemical kinase assay; read-out: AKT IC50. An outline of the steps:
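IC50 in nM was derived from 10-point, single-replicate titrations. Read-out was radiometric P81 filter binding following a 2 h room-temperature reaction with 33P-ATP, after 20 min compound preincubation.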

For test [1], the target named is T1, AKT Kinase-NanoLuc fusion in HEK-293 cells (Homo sapiens, UniProt P31749).
T1 construct: host or cells: HEK-293
T1 sequence (P31749 whole entry, the tested form may be a part): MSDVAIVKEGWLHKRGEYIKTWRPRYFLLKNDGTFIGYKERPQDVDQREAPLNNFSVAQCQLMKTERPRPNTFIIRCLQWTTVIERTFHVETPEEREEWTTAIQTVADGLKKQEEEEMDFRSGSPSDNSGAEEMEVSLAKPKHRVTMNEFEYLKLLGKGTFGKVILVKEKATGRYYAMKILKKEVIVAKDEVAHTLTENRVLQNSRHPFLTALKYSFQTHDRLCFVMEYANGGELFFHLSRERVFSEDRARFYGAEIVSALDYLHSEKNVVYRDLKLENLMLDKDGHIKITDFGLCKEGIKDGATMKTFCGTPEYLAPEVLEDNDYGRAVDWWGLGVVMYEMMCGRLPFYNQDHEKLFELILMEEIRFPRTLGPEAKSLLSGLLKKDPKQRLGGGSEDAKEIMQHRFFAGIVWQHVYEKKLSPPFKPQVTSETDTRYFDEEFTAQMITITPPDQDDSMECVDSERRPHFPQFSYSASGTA
The test can be described thus: NanoBRET target engagement assay in transfected HEK-293 cells, AKT. Conditions: Table 28, NanoBRET, HEK-293 cells; read-out: AKT1 (Cellular) IC50. In kind it is cell-based. An excerpt: The NanoBRET™ assay measures kinase engagement in real time in the context of the intact cell. The assay uses a Kinase-NanoLuc® fusion vector expressing a kinase protein to which a luciferase tag has been added, a cell-permeant fluorescent NanoBRET™ tracer, a NanoLuc® substrate, and an extracellular NanoLuc® inhibitor. Upon expression of the luciferase-tagged kinase, cells will produce a strong BRET signal only in the presence of the NanoBRET™ tracer. The extracellular NanoLuc® inhibitor ensures that the BRET signal observed emanates only from live cells. Because the BRET signal has tight distance constraints, addition of the test compound will decrease the BRET signal if the compound competes with the NanoBRET™ tracer for binding to the kinase domain. Under the appropriate tracer conditions established by the manufacturer, quantitative intracellular affinity and relative potency can then be determined using Mass Action model equations.
HEK-293 cells were purchased from ATCC. FuGENEHD Transfection Reagent, Kinase-NanoLuc® fusion plasmids, Transfection Carrier DNA, NanoBRET™ Tracers and dilution buffer, NanoBRET™ Nano-Glo Substrate, Extracellular NanoLuc® Inhibitor were obtained from Promega.
Assays were conducted following Promega assay protocol with some modifications as described further below. HEK-293 Cells were transiently transfected with Kinase-NanoLuc® Fusion Vector DNA by FuGENE HD Transfection Reagent. Test compounds were delivered into 384 well assay plate by Echo 550 (Labcyte Inc, Sunnyvale, CA). Transfected cells were harvested and mixed with NanoBRET™ Tracer Reagent and dispensed into 384 well plates and incubated at 37° C. in 5% CO2 cell culture incubator for 1 hour. The NanoBRET™ Nano-Glo Substrate plus Extracellular NanoLuc® Inhibitor Solution were added into the wells of the assay plate and incubated for 2-3 minutes at room temperature. The donor emission wavelength (460 nm) and acceptor emission wavelength (600 nm) were measured in the EnVision plate reader. The BRET Ratios were calculated. BRET Ratio=[(Acceptor sample÷Donor sample)−(Acceptor no-tracer control÷Donor no-tracer control)]. The IC50 values of compounds were calculated with Prism GraphPad program.
• 1. Transient Transfection of HEK-293 Cells NanoLuc® Fusion Vector DNA • 1). Cultivate HEK-293 cells (70-80% confluence) appropriately prior to assay. Trypsinize and collect HEK-293 cells. • 2). Prepare lipid: DNA complexes as follows: • a. Prepare a […] solution of DNA in Opti-MEM™ without serum that consists of the following ratios of carrier DNA and DNA encoding NanoLuc® fusion. 9.0 µg/mL of Transfection Carrier DNA, […] of NanoLuc® fusion vector DNA and 1 mL of Opti-MEM™ without phenol red. Mix thoroughly. • b. Add 30 μl of FuGENE HD Transfection Reagent into each milliliter of DNA mixture to form lipid: DNA complex. • c. Mix by inversion 10 times. • d. Incubate at ambient temperature for 20 minutes to allow complexes to form. • 3). In a sterile, conical tube, mix 1 part of lipid: DNA complex with 20 parts of HEK-293 cells in suspension. Mix gently by inversion 5 times. • 4). Dispense cells+lipid: DNA complex into a sterile tissue culture dish and incubate for 22-24 hours. • 2. Addition of Test Compounds (dry plate shooting): Each test compound is delivered from the compound source plate to the wells of 384-well white NBS plate by Echo 550. • 3. Preparation of Cells with NanoBRET™ Tracer Reagent • 1). Remove medium from dish with transfected HEK-293 cells via aspiration, trypsinize and allow cells to dissociate from the dish. • 2). Neutralize trypsin using medium containing serum and centrifuge at 200× g for 5 minutes to pellet the cells. Adjust the cell density to 2×10^5 cells/mL in Opti-MEM™ without phenol red. • 3). Prepare Complete 20× NanoBRET™ Tracer Reagent with Tracer Dilution Buffer. • 4). Dispense one part of Complete 20× NanoBRET™ Tracer Reagent to 20 parts of cells in the tube. Mix gently by inversion 10 times. • 5). […]

Chain of AKT (P31749 whole entry): as the sequence (P31749 whole entry, the tested form may be a part) above

As for `C[C@@H]1CNC[C@H](C)[C@@]1(O)c1ccc(-c2ccnc3[nH]cc(F)c23)cc1Cl` [Compound 1, (3S,4S,5R)-4-(2-chloro-4-(3-fluoro-1H-pyrrolo[2,3-b]pyridin-4-yl)phenyl)-3,5-dimethylpiperidin-4-ol], the pIC50 on AKT was 7.81; in test [1] it was 4.67. With `C[C@@H]1CNC[C@H](C)[C@@]1(O)c1ccc(-c2ccnc3[nH]cc(F)c23)cc1` [Compound 2, (3R,4s,5S)-4-(4-(3-fluoro-1H-pyrrolo[2,3-b]pyridin-4-yl)phenyl)-3,5-dimethylpiperidin-4-ol], the values for the pIC50 (at AKT; in test [1]) were 6.83 and < 4.30, respectively. As to `C[C@@H]1CNC[C@H](C)[C@@]1(O)c1ccc(-c2ccnc3[nH]cc(F)c23)cc1F` [Compound 7, (3S,4s,5R)-4-(2-fluoro-4-(3-fluoro-1H-pyrrolo[2,3-b]pyridin-4-yl)phenyl)-3,5-dimethyl piperidin-4-ol], the pIC50 on AKT was 6.72; in test [1] it was 5.06.

On to `C[C@@H]1CNC[C@H](C)[C@@]1(O)c1ccc(-c2ccnc3[nH]cc(F)c23)nc1` [Compound 8, (3S,4s,5R)-4-(6-(3-fluoro-1H-pyrrolo[2,3-b]pyridin-4-yl)pyridin-3-yl)-3,5-dimethylpiperidin-4-ol], for which the pIC50 on AKT was 5.48; in test [1] it was 5.06. On to `Cc1cc(-c2ccnc3[nH]cc(F)c23)ccc1[C@@]1(O)[C@H](C)CNC[C@@H]1C` [Compound 9, (3S,4s,5R)-4-(4-(3-fluoro-1H-pyrrolo[2,3-b]pyridin-4-yl)-2-methylphenyl)-3,5-dimethylpiperidin-4-ol], for which the pIC50 is 7.05 at AKT and 4.82 in test [1]. `C[C@@H]1CNC[C@H](C)[C@@]1(O)c1c(F)cc(-c2ccnc3[nH]cc(F)c23)cc1F` [Compound 13]: the pIC50 at AKT is 6.44; in test [1], 4.79.

Consider `C[C@@H]1CNC[C@H](C)[C@@]1(O)c1ccc(-c2ccnc3[nH]cc(F)c23)cc1OC(F)(F)F` [Compound 14, (3S,4s,5R)-4-(4-(3-fluoro-1H-pyrrolo[2,3-b]pyridin-4-yl)-2-(trifluoromethoxy)phenyl)-3,5-dimethylpiperidin-4-ol], for which the pIC50 on AKT was 6.95; in test [1], 5.31. The like results for `C[C@@H]1CN(Cc2ccccn2)C[C@H](C)[C@@]1(O)c1c(F)cc(-c2ccnc3[nH]cc(F)c23)cc1F` [Compound 17, (3S,4s,5R)-4-(2,6-difluoro-4-(3-fluoro-1H-pyrrolo[2,3-b]pyridin-4-yl)phenyl)-3,5-dimethyl-1-(pyridin-2-ylmethyl)piperidin-4-ol] were, in that order, 5.97 and 4.62. For the compound `C[C@@H]1CN(C)C[C@H](C)[C@@]1(O)c1cnc(-c2ccnc3[nH]cc(F)c23)cc1Cl` [Compound 22, (3S,4s,5R)-4-(4-chloro-6-(3-fluoro-1H-pyrrolo[2,3-b]pyridin-4-yl)pyridin-3-yl)-1,3,5-trimethylpiperidin-4-ol], the pIC50 was 6.30 on AKT and 5.60 in test [1].

Consider `Cc1cc(-c2ccnc3[nH]cc(F)c23)ccc1[C@@]1(O)[C@H](C)CN(C2COC2)C[C@@H]1C` [Compound 24, (3S,4s,5R)-4-(4-(3-fluoro-1H-pyrrolo[2,3-b]pyridin-4-yl)-2-methylphenyl)-3,5-dimethyl-1-(oxetan-3-yl)piperidin-4-ol], for which the figures for the pIC50 (at AKT; in test [1]) were 6.43 and 4.25, respectively.

For the compound `Cc1cc(-c2ccnc3[nH]cc(F)c23)ccc1[C@@]1(O)[C@H](C)CN(C(C)C)C[C@@H]1C` [Compound 29, (3S,4s, 5R)-4-(4-(3-fluoro-1H-pyrrolo[2,3-b]pyridin-4-yl)-2-methylphenyl)-1-isopropyl-3,5-dimethylpiperidin-4-ol], the pIC50 on AKT was 7.36; in test [1], 4.77. `Cc1cc(-c2ccnc3[nH]cc(F)c23)cc(F)c1C1(O)[C@H](C)CN(C2COC2)C[C@@H]1C` (stereo partly drawn) [Compound 30, (3S,5R)-4-(2-fluoro-4-(3-fluoro-1H-pyrrolo[2,3-b]pyridin-4-yl)-6-methylphenyl)-3,5-dimethyl-1-(oxetan-3-yl)piperidin-4-ol]: the results for the pIC50 (at AKT; in test [1]) were 6.16 and < 4.52, respectively. On to `C[C@@H]1CN(C2CCS(=O)(=O)CC2)C[C@H](C)C1(O)c1c(F)cc(-c2ccnc3[nH]cc(F)c23)cc1F` (stereo partly drawn) [Compound 31, 4-((3S,5R)-4-(2,6-difluoro-4-(3-fluoro-1H-pyrrolo[2,3-b]pyridin-4-yl)phenyl)-4-hydroxy-3,5-dimethylpiperidin-1-yl)tetrahydro-2H-thiopyran 1,1-dioxide], for which the pIC50 on AKT was 6.89; in test [1], 4.40. With `C[C@@H]1CN(C)C[C@H](C)[C@@]1(O)c1ccc(-c2ccnc3[nH]cc(F)c23)cc1` [Compound 39, (3R,4s,5S)-4-(4-(3-fluoro-1H-pyrrolo[2,3-b]pyridin-4-yl)phenyl)-1,3,5-trimethylpiperidin-4-ol], the pIC50 was 6.67 at AKT and < 4.30 in test [1]. `C[C@@H]1CN(C)C[C@H](C)[C@@]1(O)c1ccc(-c2ccnc3[nH]cc(F)c23)nc1` [Compound 41, (3R,4s,5S)-4-(6-(3-fluoro-1H-pyrrolo[2,3-b]pyridin-4-yl)pyridin-3-yl)-1,3,5-trimethylpiperidin-4-ol]: the pIC50 at AKT was 5.38; in test [1], 5.06.

Turning to `C[C@@H]1CN(C2COC2)C[C@H](C)[C@@]1(O)c1c(F)cc(-c2ccnc3[nH]cc(F)c23)cc1F` [Compound 45, (3S,4s,5R)-4-(2,6-difluoro-4-(3-fluoro-1H-pyrrolo[2,3-b]pyridin-4-yl)phenyl)-3, S-dimethyl-1-(oxetan-3-yl)piperidin-4-ol], the pIC50 on AKT was 5.93; in test [1] it was < 4.52. In the case of `C[C@@H]1CN(C2CCC2)C[C@H](C)[C@@]1(O)c1c(F)cc(-c2ccnc3[nH]cc(F)c23)cc1F` [Compound 46, (3R,4s,5S)-1-cyclobutyl-4-(2,6-difluoro-4-(3-fluoro-1H-pyrrolo[2,3-b]pyridin-4-yl)phenyl)-3,5-dimethylpiperidin-4-ol], the values for the pIC50 (at AKT; in test [1]) were 6.45 and 4.50, respectively.

Consider `Cc1cc(-c2ccnc3[nH]cc(F)c23)ncc1[C@@]1(O)[C@H](C)CN(C2CCC2)C[C@@H]1C` [Compound 48, (3R,4s,5S)-1-cyclobutyl-4-(6-(3-fluoro-1H-pyrrolo[2,3-b]pyridin-4-yl)-4-methylpyridin-3-yl)-3,5-dimethylpiperidin-4-ol], for which the pIC50 at AKT is 5.21.

For `Cc1cc(-c2ccnc3[nH]cc(F)c23)ncc1[C@@]1(O)[C@H](C)CN(C2CCS(=O)(=O)CC2)C[C@@H]1C` [Compound 51, 4-((3R,4s,5S)-4-(6-(3-fluoro-1H-pyrrolo[2,3-b]pyridin-4-yl)-4-methylpyridin-3-yl)-4-hydroxy-3,5-dimethylpiperidin-1-yl)tetrahydro-2H-thiopyran 1,1-dioxide], the pIC50 on AKT was < 5.00; in test [1], < 4.52. For `Cc1cc(-c2ccnc3[nH]cc(F)c23)ccc1[C@@]1(O)[C@H](C)CN(C2CCC2)C[C@@H]1C` [Compound 54, (3R,4s,5S)-1-cyclobutyl-4-(4-(3-fluoro-1H-pyrrolo[2,3-b]pyridin-4-yl)-2-methylphenyl)-3,5-dimethylpiperidin-4-ol] the same measures were 7.29 and 5.53.

By pIC50 is commonly meant the IC50 on a negative log10 scale, so that one unit is a factor of ten.
